Legend:
μ-opioid receptor = biological target: T1, μ-opioid receptor (Homo sapiens, UniProt P35372); test: μ-opioid receptor [35S]GTPγS functional assay; format: biochemical; conditions: for Emax: maximal effect relative to the effect elicited by DAMGO, HEK-293 cells
T1 construct: host or cells: HEK-293; b235 lists HEK-293, CHO or U-2 OS)
Method: [^35S]GTPγS functional assays were conducted using freshly thawed μ-receptor membranes prepared in-house from a cell line expressing recombinant t opioid receptor in a HEK-293, CHO or U-2 OS cell background, or purchased from a commercial source (Perkin Elmer, Shelton, Conn.; or DiscovRx, Fremont, Calif.). Assay reactions were prepared by sequentially adding the following reagents to binding buffer (100 mM NaCl, 10 mM MgCl2, 20 mM HEPES, pH 7.4) on ice (final concentrations indicated): membrane protein (0.026 mg/mL), saponin ([…]), GDP ([…]) and [^35S]GTPγS (0.20 nM; Perkin Elmer, Shelton, Conn.). The prepared membrane solution (190 μl/well) was transferred to 96-shallow well polypropylene plates containing 10 al of 20× concentrated stock solutions of the agonist [D-Ala^2, N-methyl-Phe^4 Gly-ol^5]-enkephalin (DAMGO) prepared in dimethyl sulfoxide (DMSO). Plates were incubated for 30 min at about 25° C. with shaking. Reactions were terminated by rapid filtration onto 96-well Unifilter GF/B filter plates (Perkin Elmer, Shelton, Conn.) using a 96-well tissue harvester (Perkin Elmer, Shelton, Conn.) followed by three filtration washes with 200 μl of ice-cold wash buffer (10 mM NaH2PO4, 10 mM Na2HPO4, pH 7.4). Filter plates were subsequently dried at 50° C. for 2-3 hours. BetaScint scintillation cocktail (Perkin Elmer, Shelton, Conn.) was added (50 μl/well) and plates were counted using a Packard Top-Count for 1 min/well. Data were analyzed using the sigmoidal dose-response curve fitting functions in GraphPad PRISM v. 3.0, or an in-house function for non-linear, sigmoidal dose-response curve-fitting.
μGTP EC50 is the concentration of a compound providing 50% of the maximal response for the compound at a μ-opioid receptor.
μ GTP Emax (%) is the maximal effect elicited by a compound relative to the effect elicited by DAMGO, a standard agonist. Generally, the μ GTP Emax (%) value measures the efficacy of a compound to treat or prevent pain or other Conditions.
(§1) In TABLE 2, activity response of certain Compounds of the Invention to the μ- and κ-opioid receptors was determined as described above for functional assays using HEK-293 cells.

κ-opioid receptor [1] = biological target: T2, κ-opioid receptor (Homo sapiens, UniProt P41145); test: κ-opioid receptor [35S]GTPγS functional assay; format: biochemical; design: expressed in transfected cells; host or cells: HEK-293 (in-house membranes); conditions: for Emax: maximal effect relative to the effect elicited by U69,593, HEK-293 cells
T2 sequence (P41145 whole entry): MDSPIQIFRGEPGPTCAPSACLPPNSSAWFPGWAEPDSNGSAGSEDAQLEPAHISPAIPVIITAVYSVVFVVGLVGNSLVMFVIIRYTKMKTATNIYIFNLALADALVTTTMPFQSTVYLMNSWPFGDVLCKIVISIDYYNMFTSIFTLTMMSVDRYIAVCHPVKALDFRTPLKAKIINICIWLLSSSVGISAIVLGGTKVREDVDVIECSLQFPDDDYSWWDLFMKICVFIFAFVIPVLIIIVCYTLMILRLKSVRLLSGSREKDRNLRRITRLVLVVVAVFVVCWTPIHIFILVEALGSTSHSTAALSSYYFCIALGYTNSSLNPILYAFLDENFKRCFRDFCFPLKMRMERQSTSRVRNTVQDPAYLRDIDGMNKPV
Method: Functional [^35S]GTPγS binding assays were conducted as follows. K opioid receptor membrane solution was prepared by sequentially adding final concentrations of 0.026 μg/μl κ membrane protein (in-house), 10 μg/mL saponin, 3 μM GDP and 0.20 nM [^35S]GTPγS to binding buffer (100 mM NaCl, 10 mM MgCl2, 20 mM HEPES, pH 7.4) on ice. The prepared membrane solution (190 μl/well) was transferred to 96-shallow well polypropylene plates containing 10 μl of 20× concentrated stock solutions of agonist prepared in DMSO. Plates were incubated for 30 min at a temperature of about 25° C. with shaking. Reactions were terminated by rapid filtration onto 96-well Unifilter GF/B filter plates (Perkin Elmer, Shelton, Conn.) using a 96-well tissue harvester (Packard) and followed by three filtration washes with 200 μl ice-cold binding buffer (10 mM NaH2PO4, 10 mM Na2HPO4, pH 7.4). Filter plates were subsequently dried at 50° C. for 2-3 hours. Fifty μl/well scintillation cocktail (Perkin Elmer, Shelton, Conn.) was added and plates were counted in a Packard Top-Count for 1 min/well.
κ GTP EC50 is the concentration of a compound providing 50% of the maximal response for the compound at a κ receptor.
κ GTP Emax (%) is the maximal effect elicited by a compound relative to the effect elicited by U69,593.
as §1

κ-opioid receptor [2] = biological target: T2, κ-opioid receptor; test: κ-opioid receptor radioligand dose displacement binding assay ([3H]-U69,593); design: expressed in transfected cells; host or cells: HEK-293 (in-house membrane prep)
Method: Membranes from HEK-293 cells, CHO or U-2 OS cells expressing the recombinant human kappa opioid receptor (K) were prepared by lysing cells in ice cold hypotonic buffer (2.5 mM MgCl2, 50 mM HEPES, pH 7.4) (10 mL/10 cm dish) followed by homogenization with a tissue grinder/Teflon pestle. Membranes were collected by centrifugation at 30,000×g for 15 min at 4° C. and pellets were resuspended in hypotonic buffer to a final concentration of 1-3 mg/mL. Protein concentrations were determined using the BioRad protein assay reagent with bovine serum albumen as standard. Aliquots of κ receptor membranes were stored at −80° C.
Radioligand dose displacement assays used 0.4 nM [^3H]-U69,593 (GE Healthcare, Piscataway, N.J.; 40 Ci/mmole) with 15 μg membrane protein (recombinant K opioid receptor expressed in HEK 293 cells; in-house prep) in a final volume of 200 μl binding buffer (5% DMSO, 50 mM Trizma base, pH 7.4). Non-specific binding was determined in the presence of 10 μM unlabeled naloxone or U69,593. All reactions were performed in 96-well polypropylene plates for 1 hour at a temperature of about 25° C. Binding reactions were terminated by rapid filtration onto 96-well Unifilter GF/C filter plates (Perkin Elmer, Shelton, Conn.) presoaked in 0.5% polyethylenimine (Sigma). Harvesting was performed using a 96-well tissue harvester (Perkin Elmer, Shelton, Conn.) followed by five filtration washes with 200 μl ice-cold binding buffer. Filter plates were subsequently dried at 50° C. for 1-2 hours. Fifty μl/well scintillation cocktail (Perkin Elmer, Shelton, Conn.) was added and plates were counted in a Packard Top-Count for 1 min/well.
In TABLE 1, binding affinity of certain Compounds of the Invention to the κ-opioid receptors was determined as described above.

T1 sequence (P35372 whole entry, species assumed): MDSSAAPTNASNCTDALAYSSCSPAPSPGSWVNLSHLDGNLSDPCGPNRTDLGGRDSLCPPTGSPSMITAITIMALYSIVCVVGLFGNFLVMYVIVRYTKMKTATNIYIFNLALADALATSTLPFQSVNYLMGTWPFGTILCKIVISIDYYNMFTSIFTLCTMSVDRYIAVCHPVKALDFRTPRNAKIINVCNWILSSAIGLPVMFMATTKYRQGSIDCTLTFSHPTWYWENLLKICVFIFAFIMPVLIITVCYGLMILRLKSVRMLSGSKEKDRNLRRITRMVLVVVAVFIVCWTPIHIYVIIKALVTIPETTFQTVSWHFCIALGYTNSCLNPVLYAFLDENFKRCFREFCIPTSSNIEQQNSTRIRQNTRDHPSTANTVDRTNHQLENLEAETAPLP

Structure (SMILES)	EC50 (μ-opioid receptor)	Emax (μ-opioid receptor)	EC50 (κ-opioid receptor [1])	Emax (κ-opioid receptor [1])	Ki (κ-opioid receptor [2])
CN(C(=O)c1cc2c([nH]c1=O)C[C@]13CCN(C)[C@H](Cc4ccc(O)cc41)[C@@H]3C2)C1CCCCC1 [Compound 15, (6R,6aR,12aS)—N-cyclohexyl-2-hydroxy-N,15-dimethyl-10-oxo-6,6a,7,10,11,12-hexahydro-5H-6,12a-(epiminoethano)naphtho[2,1-g]quinoline-9-carboxamide]	289 ± 34.8 nM	29.7 ± 3.28%			
CN1CC[C@]23Cc4[nH]c(=O)c(C(=O)N[C@@H]5c6ccccc6C[C@@H]5O)cc4C[C@H]2[C@H]1Cc1ccc(O)cc13 [Compound 13, (6R,6aR,12aS)-2-hydroxy-N-((1R,2S)-2-hydroxy-2,3-dihydro-1H-inden-1-yl)-15-methyl-10-oxo-6,6a,7,10,11,12-hexahydro-5H-6,12a-(epiminoethan)naphth[2-g]quinolinone-9-carboxamide]	484 ± 113 nM	34 ± 3.21%			
CN1CC[C@]23Cc4[nH]c(=O)c(C(=O)N5CCCC5)cc4C[C@H]2[C@H]1Cc1ccc(O)cc13 [Compound 12, (6R,6aR,12aS)-2-hydroxy-15-methyl-9-(pyrrolidine-1-carbonyl)-6,6a,7,12-tetrahydro-5H-6,12a-(epiminoethano)naphtho[2,1-g]quinolin-10(11H)-one]	145 ± 27.9 nM	35.3 ± 1.67%	24.2 ± 11.9 nM	9.5 ± 0.5%	14.4 ± 2.81 nM
NC(=O)c1cc2c([nH]c1=O)C[C@]13CCN[C@H](Cc4ccc(O)cc41)[C@]3(O)C2 [Compound 6]	2900 ± 868 nM	23 ± 1%			
COC(=O)c1cc2c([nH]c1=O)C[C@]13CCN[C@H](Cc4ccc(OC)cc41)[C@]3(O)C2 [Compound 4, Methyl (6R,6aS,12aR)-6a-hydroxy-2-methoxy-10-oxo-6,6a,7,10,11,12-hexahydro-5H-6,12a-(epiminoethano)naphtho[2,1-g]quinoline-9-carboxylate]	> 20000 nM	20 ± 2.08%			
COc1ccc2c(c1)[C@]13CCN(C)[C@H](C2)[C@@H]1Cc1cc(C(=O)O)c(=O)[nH]c1C3 [Compound 8, (6R,6aR,12aS)-2-methoxy-15-methyl-10-oxo-6,6a,7,10,11,12-hexahydro-5H-6,12a-(epiminoethano)naphtho[2,1-g]quinoline-9-carboxylic acid]	13300 ± 1800 nM	40.7 ± 5.04%			
CN1CC[C@]23Cc4[nH]c(=O)c(C(=O)N5CCS(=O)(=O)CC5)cc4C[C@H]2[C@H]1Cc1ccc(O)cc13 [Compound 18, (6R,6aR,12aS)-9-(1,1-dioxidothiomorpholine-4-carbonyl)-2-hydroxy-15-methyl-6,6a,7,12-tetrahydro-5H-6,12a-(epiminoethano)naphtho[2,1-g]quinolin-10(11H)-one]	462 ± 88.4 nM	33.2 ± 3.3%			
CN1CC[C@]23Cc4[nH]c(=O)c(C(=O)N5[C@@H]6CC[C@H]5C[C@@H](O)C6)cc4C[C@H]2[C@H]1Cc1ccc(O)cc13 [Compound 17, (6R,6aR,12aS)-2-hydroxy-9-((1R,3R,5S)-3-hydroxy-8-azabicyclo[3.2.1]octane-8-carbonyl)-15-methyl-6,6a,7,12-tetrahydro-5H-6,12a-(epiminoethano)naphtho[2,1-g]quinolin-10(11H)-one]	240 ± 36.8 nM	27.5 ± 2.53%	152 ± 28.8 nM	9.74 ± 1.51%	17.7 ± 7.6 nM
COC(=O)c1cc2c([nH]c1=O)C[C@]13CCN(C(=O)OC(C)(C)C)[C@H](Cc4ccc(OC)cc41)[C@]3(O)C2 [Compound 3, 15-(tert-Butyl) 9-methyl (6R,6aS,12aR)-6a-hydroxy-2-methoxy-10-oxo-6,6a,7,10,11,12-hexahydro-5H-6,12a-(epiminoethano)naphtho[2,1-g]quinoline-9,15-dicarboxylate]	> 20000 nM	0%			
CN1CC[C@]23Cc4[nH]c(=O)c(C(=O)N[C@H]5c6ccccc6C[C@H]5O)cc4C[C@H]2[C@H]1Cc1ccc(O)cc13 [Compound 14, (6R,6aR,12aS)-2-hydroxy-N-((1S,2R)-2-hydroxy-2,3-dihydro-1H-inden-yl)-15-methyl-10-oxo-6,6a,7,10,11,12-hexahydro-5H-6,12a-(epiminoethano)naphtho[2,1-g]quinoline-9-carboxamide]	432 ± 135 nM	34 ± 2.31%			
CN1CC[C@]23Cc4[nH]c(=O)c(C(=O)NCc5ccccc5)cc4C[C@H]2[C@H]1Cc1ccc(O)cc13 [Compound 11, (6R,6aR,12aS)-N-benzyl-2-hydroxy-15-methyl-10-oxo-6,6a,7,10,11,12-hexahydro-5H-6,12a-(epiminoethano)naphtho[2,1-g]quinoline-9-carboxamide]	332 ± 61.7 nM	32.3 ± 0.88%			
COc1ccc2c(c1)[C@]13CCN(C(=O)OC(C)(C)C)[C@H](C2)[C@]1(O)Cc1cc(C(=O)O)c(=O)[nH]c1C3 [Compound 20, (6R,6aS,12aR)-15-(tert-butoxycarbonyl)-6a-hydroxy-2-methoxy-10-oxo-6,6a,7,10,11,12-hexahydro-5H-6,12a-(epiminoethano)naphtho[2,1-g]quinoline-9-carboxylic acid]	> 20000 nM	3%			
CN1CC[C@]23Cc4[nH]c(=O)c(C(=O)N5Cc6ccccc6C5)cc4C[C@H]2[C@H]1Cc1ccc(O)cc13 [Compound 16, (6R,6aR,12aS)-2-hydroxy-9-(isoindoline-2-carbonyl)-15-methyl-6,6a,7,12-tetrahydro-5H-6,12a-(epiminoethano)naphtho[2,1-g]quinolin-10(11H)-one]	40.2 ± 11.5 nM	47 ± 2.65%	> 20000 nM	0%	1.41 ± 0.52 nM
CCn1c2c(cc(C(=O)N3Cc4ccccc4C3)c1=O)C[C@@]1(O)[C@H]3Cc4ccc(O)cc4[C@@]1(CCN3C)C2 [Compound 19, (6R,6aS,12aR)-11-ethyl-2,6a-dihydroxy-9-(isoindoline-2-carbonyl)-15-methyl-6,6a,7,12-tetrahydro-5H-6,12a-(epiminoethano)naphtho[2,1-g]quinolin-10(11H)-one]	288 ± 49.6 nM	30.8 ± 2.31%			
